In US10093674B2, “Supramolecular nanofibers and hydrogels based on nucleic acids functionalized with nucleobases” (Brandeis University, priority 2011, dated 2018):

Experiments:
mammalian cells = conditions: 500 μM, 72 hours; for cell viability: mammalian cells, MTT assay
Experimental: To verify the biocompatibility of the hydrogelators, hydrogelators 1′ and 2′ were added into a culture of mammalian cells, and the proliferation of the cells was measured.

HeLa cells [1] = conditions: 500 μM, 72 hours; for cell viability: MTT assay
Text: To verify the biocompatibility of the hydrogelators, we added hydrogelator 1 or precursor 2 into the culture of HeLa cells and measured the proliferation of the cells.

[2] = tested on: alkaline phosphatase (ALP); conditions: 12 h after the addition of alkaline phosphatase, 31P NMR
Text: Following the procedures reported by Nieddu for making nucleobase acetic acids, we first synthesized bis(tert-butyloxycarbonyl) (bis-Boc) protected adenine, (N^6-bis-Boc-adenine-9-yl)-acetic acid (4). After being activated by N-hydroxysuccinimide (NHS), 4 reacts with L-Phe to afford 5, which undergoes the same NHS activation and phenylalanine coupling to give the key intermediate 6.

HeLa cells [3] = conditions: 500 μM in medium, 20 h
Experimental: HeLa cells were re-suspended in 10 cm tissue culture dish after washing cells once with PBS. 0.8 mL 0.25% trypsin containing 0.1% EDTA was then added, and the cells were re-suspended with 1.6 mL complete medium. 5000 cells (in 100 μL medium) were plated into each vial on a 96 well plate to create a confluent monolayer. After adherent for 24 h, a wound was created by scraping the cell monolayer with a p200 pipet tip. The cells were washed once with 100 μL of complete medium to remove flowing cells and replace with 100 μL of complete medium. 0 h image was acquired as a reference point. […] 0 h and 20 h images were acquired at the match photographed region.

HeLa cells [4] = conditions: 500 μM 1T′ and 0.1 μM nucleic acid complex, 24 h
Experimental: HeLa cells were seeded in 2 well chamber slide at a density of 10,000 cell/well. […] After incubation at 37° C. for 24 h, we removed the culture medium, washed the cells by 1 mL PBS for 3 times, then resin the cells in 1 mL PBS. Fluorescence images were taken by using confocal fluorescence microscope. FIG. 34.

Substance | cell viability (mammalian cells) | cell viability (HeLa cells [1]) | also measured
Thymine-Phe-Phe-glucosamine [2T′] | 90% | – | –
Adenine-Phe-Phe [Compound 1A] | – | 100% | –
Adenine-Phe-Phe-Tyr-phosphate [Compound 2A] | – | 100% | transformation of precursor into hydrogelator [2]: completely transforms
Cytosine-Phe-Phe-Glucosamine [2C′] | 90% | – | –
Thymine-Phe-Phe-Tyr-phosphate [Compound 2T] | – | 100% | –
Guanine-Phe-Phe-Tyr-phosphate [Compound 2G] | – | – | cell viability (in words) (HeLa cells [1]): decreases slightly
Thymine-Phe-glucosamine [1T′] | 90% | – | effect on the migration of cells (HeLa cells [3]): little inhibitory effect; delivery of FITC-labeled nucleic acid (HeLa cells [4]): nuclear localization of DNA
Guanine-Phe-Phe-glucosamine [2G′] | 90% | – | –
Adenine-Phe-glucosamine [1A′] | – | – | cell viability (in words) (mammalian cells): decreased slightly
Cytosine-Phe-Glucosamine [1C′] | – | – | cell viability (in words) (mammalian cells): decreased slightly
Cytosine-Phe-Phe [Compound 1C] | – | 100% | –
Adenine-Phe-Phe-glucosamine [2A′] | 90% | – | –
Thymine-Phe-Phe [Compound 1T] | – | 100% | –
Cytosine-Phe-Phe-Tyr-phosphate [Compound 2C] | – | 100% | –
Guanine-Phe-glucosamine [1G′] | 90% | – | –
Guanine-Phe-Phe [Compound 1G] | – | – | cell viability (in words) (HeLa cells [1]): decreases slightly
